pIC50: −log10 of the molar value. Counter-ions that a name gives are not always drawn. Like-named read-outs stand apart in the source and are kept apart here.
How the values were obtained:
[1] = test system: STIB 900 strain of Trypanosoma brucei rhodesiense; assay: In vivo activity against T. b. r. STIB 900 in a mouse model; details: for responders at 25 mg/kg / responders at 5 mg/kg / responders at 20 mg/kg: Trypanosoma brucei, 1440 h, read-out: Cures (number of mice that survive and are parasite free for 60 days); for Survival (average days of survival) / Cures (number of mice that survive and are parasite free for 60 days): mouse, days 3-6 post-infection; for Survival (average days of survival): untreated controls expire between 7 and 8 days; for Cures (number of mice that survive and are parasite free for 60 days): groups of four mice
Procedure: The activities of compounds 4, 5, 6, 11, 12, 18, 20, 22, 27, 28, 30 and 33 against the STIB 900 strain of Trypanosoma brucei rhodesiense (T. b. r.) in a mouse model are shown in Table 2. […] Groups of four mice were infected intraperitoneally with 2×10^5 bloodstream forms of T. b. r. STIB 900 which originates from a patient in Tanzania. On days 3, 4, 5, and 6 post-infection the experimental groups were treated with the drugs either by the intraperitoneal or for prodrugs by the oral route. Usually the highest tolerated dose was used which was determined in a pretoxicological experiment. Parasitemia of the mice was checked daily up to day 14 post-infection and thereafter 2 times per week up to day 60. One group of mice was not treated and acted as control. For relapsing mice, the day of death was recorded and the survival time determined.

L-6 rat mycoblast cells [2] = test system: L-6 rat mycoblast cells
[3] = test system: Plasmodium falciparum (P. f.); assay: In vitro antiprotozoal activity against Plasmodium falciparum; type: cell-based
Procedure: (§1) In vitro antiprotozoal activities were measured following established protocols. […] E., et al., Bioorg.

[4] = test system: Trypanosoma brucei rhodesiense (T. b. r.); assay: In vitro antiprotozoal activity against Trypanosoma brucei rhodesiense; type: cell-based
Procedure: as §1

[5] = test system: Leishmania donovani (L. d.); assay: In vitro assay against Leishmania donovani; type: cell-based
Procedure: as §1

L-6 rat mycoblast cells [6] = assay: Cell toxicity assay in L-6 cells
[7] = in vitro, read-out: T.b.r. IC50
[8] = Plasmodium falciparum, in vitro, read-out: IC50 values versus P.f.
[9] = Plasmodium falciparum, in vitro, read-out: P.f. IC50
[10] = Trypanosoma brucei, RHODESIENSE, in vitro, read-out: IC50 values versus T.b.r.
[11] = Trypanosoma brucei, RHODESIENSE, in vitro, read-out: T.b.r. IC50
[12] = Leishmania donovani, in vitro, read-out: IC50 values versus L.d.
[13] = Leishmania donovani, in vitro, read-out: L.d. C50

## NC(=NO)c1ccc(-c2ccc(-c3ccc(C(N)=NO)cn3)[se]2)nc1 [Compound 28, 2,5-Bis-[2-{5-(N-hydroxyamidino)-pyridyl}]selenophene dihydrochloride]
[1]; po
  responders at 25 mg/kg: 0%
[1]; po, 25 mg/kg
  Survival (average days of survival): 20 days

## Cl.Cl.N=C(N)c1ccc(-c2ccc(-c3ccc(C(=N)N)cn3)s2)nc1 [Compound 30, 2,5-Bis-[2-(5-amidino-pyridyl)]thiophene dihydrochloride]
L-6 rat mycoblast cells [2]
  Cytotoxocity: >222 µM
[3]; in vitro, read-out: P.f. IC50
  pIC50: 7.74
[4]; [7]
  pIC50: 7.17
[1]; ip, 5 mg/kg
  Cures (number of mice that survive and are parasite free for 60 days): 1/4
  Survival (average days of survival): 50.25 days
[5]; in vitro, read-out: L.d. C50
  pIC50: 4.63

## CO/N=C(\N)c1ccc(-c2ccc(-c3ccc(/C(N)=N/OC)nc3)[se]2)cc1 [Compound 20, 5-{5-[4-(N-Methoxyamidino)-phenyl]-selenophen-2-yl}-pyridine-2-N-methoxyamidine]
[1]; po
  responders at 25 mg/kg: 25%
[1]; po, 25 mg/kg
  Survival (average days of survival): 36.5 days

## N=C(N)c1ccc(-c2ccc(-c3ccc(C(=N)N)nc3)[se]2)cc1 [Compound 18, 5-[5-(4-Amidinophenyl)-selenophen-2-yl]-pyridine-2-amidine]
[3]; [8]
  pIC50: ≥ 7.85
[3]; [9]
  pIC50: 7.85
[4]; [10]
  pIC50: ≥ 7.59
[4]; [11]
  pIC50: 7.59
[1]; ip
  responders at 5 mg/kg: 100%
[1]; ip, 5 mg/kg
  Survival (average days of survival): 60 days
[5]; [12]
  pIC50: > 6.70
[5]; [13]
  pIC50: 6.89
L-6 rat mycoblast cells [6]
  Cytotoxocity: 13.4 µM

## Cl.Cl.N=C(N)c1ccc(-c2ccc(-c3ccc(C(=N)N)nc3)s2)cn1 [Compound 33, 2,5-Bis-[5-(2-amidino-pyridyl)]thiophene dihydrochloride]
L-6 rat mycoblast cells [2]
  Cytotoxocity: 4.8 µM
[3]; in vitro, read-out: P.f. IC50
  pIC50: 8.52
[4]; [7]
  pIC50: 8.40
[1]; ip, 5 mg/kg
  Cures (number of mice that survive and are parasite free for 60 days): 1/4
  Survival (average days of survival): 42.5 days
[5]; in vitro, read-out: L.d. C50
  pIC50: 6.90

## N/C(=N\O)c1ccc(-c2ccc(-c3ccc(/C(N)=N/O)cn3)[se]2)cc1 [Compound 12]
[1]; po
  responders at 25 mg/kg: 0%
[1]; po, 25 mg/kg
  Survival (average days of survival): 26 days

## N=C(N)c1ccc(-c2ccc(-c3ccc(C(=N)N)cn3)[se]2)nc1 [Compound 27, 2,5-Bis-[2-(5-amidino-pyridyl)]selenophene dihydrochloride]
[3]; [8]
  pIC50: ≥ 7.85
[3]; [9]
  pIC50: 8.00
[4]; [11]
  pIC50: 7.30
[1]; ip
  responders at 5 mg/kg: 100%
[1]; ip, 5 mg/kg
  Survival (average days of survival): 60 days
[5]; [13]
  pIC50: 5.25
L-6 rat mycoblast cells [6]
  Cytotoxocity: 158.3 µM

## CONC(=N)c1ccc(-c2ccc(-c3ccc(C(=N)NOC)cc3)[se]2)cc1.Cl.Cl [Compound 6, 2,5-Bis[4-(N-methoxyamidino)phenyl]selenophene Dihydrochloride]
[1]; po
  responders at 25 mg/kg: 0%
[1]; po, 25 mg/kg
  Survival (average days of survival): 15.25 days

## Cl.Cl.N=C(N)c1ccc(-c2ccc(-c3ccc(C(=N)N)cc3)[se]2)cc1 [Compound 4, 2,5-Bis(4-amidinophenyl)selenophene Dihydrochloride]
[3]; Plasmodium falciparum, read-out: IC50 values versus P.f.
  pIC50: ≥ 7.85
[3]; Plasmodium falciparum, read-out: P.f. IC50
  pIC50: 8.70
[4]; Trypanosoma brucei, RHODESIENSE, read-out: IC50 values versus T.b.r.
  pIC50: ≥ 7.59
[4]; Trypanosoma brucei, RHODESIENSE, read-out: T.b.r. IC50
  pIC50: 8.70
[1]; ip
  responders at 20 mg/kg: 50%
[1]; ip, 20 mg/kg
  Survival (average days of survival): 55.5 days
[5]; Leishmania donovani, read-out: IC50 values versus L.d.
  pIC50: > 6.70
[5]; Leishmania donovani, read-out: L.d. C50
  pIC50: 6.77
L-6 rat mycoblast cells [6]
  Cytotoxocity: 9.7 µM

## N=C(N)c1ccc(OCCCCCOc2ccc(C(=N)N)cc2)cc1 [Pentamidine, reference compound]
[1]; ip
  responders at 20 mg/kg: 0%
[1]; ip, 20 mg/kg
  Survival (average days of survival): 42.75 days
[5]; [13]
  pIC50: 5.70

## N=C(N)c1ccc(-c2ccc(-c3ccc(C(=N)N)cc3)o2)cc1 [Furamidine, reference compound]
[4]; [7]
  pIC50: 8.37
[1]; ip, 10 mg/kg
  Cures (number of mice that survive and are parasite free for 60 days): 0/4
  Survival (average days of survival): 44.5 days
[5]; in vitro, read-out: L.d. C50
  pIC50: 5.57
L-6 rat mycoblast cells [6]
  Cytotoxocity: 6.4 µM

## Cl.Cl.N=C(NO)c1ccc(-c2ccc(-c3ccc(C(=N)NO)cc3)[se]2)cc1 [Compound 5, 2,5-Bis[4-(N-hydroxyamidino)phenyl]selenophene Dihydrochloride]
[1]; po
  responders at 25 mg/kg: 0%
[1]; po, 25 mg/kg
  Survival (average days of survival): 11.5 days

## N=C(N)c1ccc(-c2ccc(-c3ccc(C(=N)N)cn3)[se]2)cc1 [Compound 11, 6-[5-(4-Amidinophenyl)-selenophen-2-yl]-nicotinamidine]
[3]; [8]
  pIC50: ≥ 7.85
[3]; [9]
  pIC50: 8.00
[4]; [10]
  pIC50: ≥ 7.59
[4]; [11]
  pIC50: 8.05
[1]; ip
  responders at 5 mg/kg: 100%
[1]; ip, 5 mg/kg
  Survival (average days of survival): 60 days
[5]; [12]
  pIC50: 5.80
[5]; [13]
  pIC50: 5.80
L-6 rat mycoblast cells [6]
  Cytotoxocity: 27.7 µM

## N=C(N)c1ccc(-c2ccc(-c3ccc(C(=N)N)nc3)[se]2)cn1 [Compound 22, 2,5-Bis-[5-(2-amidino-pyridyl)]selenophene dihydrochloride]
[3]; [8]
  pIC50: ≥ 7.85
[3]; [9]
  pIC50: 8.40
[4]; [10]
  pIC50: ≥ 7.59
[4]; [11]
  pIC50: 8.70
[1]; ip
  responders at 5 mg/kg: 100%
[1]; ip, 5 mg/kg
  Survival (average days of survival): 60 days
[5]; [12]
  pIC50: > 6.70
[5]; [13]
  pIC50: 7.28
L-6 rat mycoblast cells [6]
  Cytotoxocity: 5.6 µM

Reference: patent US20100331368A1, “2,5-DIARYL SELENOPHENE COMPOUNDS, AZA 2,5-DIARYL THIOPHENE COMPOUNDS, AND THEIR PRODRUGS AS ANTIPROTOZOAL AGENTS” (priority 2007, published 2010)
